From patent US20190233884A1 (University of Southern California, priority 2016, published 2019)

System: patients with refractory metastatic colorectal cancer (mCRC)
Test: PFS, OS and disease control in the control cohort of refractory mCRC patients receiving regorafenib (n=52, Italy), by baseline characteristics and SNP genotype
Type: in vivo, human
Conditions: control cohort
Description: All patients underwent the treatment in salvage-line setting.
Patients in the control group received 160 mg regorafenib (Bayer, Leverkusen, Germany) once daily from day 1 to 21 every 4 weeks. Doses were adjusted based on haematological and non-haematological adverse events at the treating physician's discretion in accordance with the manufacturer's recommendations. The analyses were approved by the University of Southern California (USC) Institutional Review Board of Medical Sciences and conducted at the USC/Norris Comprehensive Cancer Center in accordance with the Declaration of Helsinki and Good Clinical Practice Guidelines.
Genomic DNA was extracted from peripheral whole blood in patients of all cohorts using the QIAmp Kit (Qiagen, Valencia, Calif., USA) according to the manufacturer's protocol (www.qiagen.com). The candidate SNPs were genotyped using PCR-based direct DNA sequence analysis by ABI 3100A Capillary Genetic Analyzer and Sequencing Scanner v1.0 (Applied Biosystems). Amplification of extracted DNA was carried out using both forward and reverse primers for each gene polymorphism as shown in Table 1. […] The investigators analyzing SNPs were blinded to the clinical data of the study patients.
The primary endpoint in this study was progression-free survival (PFS), and the secondary endpoints were overall survival (OS) and disease control rate (DCR). PFS was calculated from the date of starting treatment to the first observation of disease progression or death from any cause. If a patient had no disease progression or death, PFS was censored at the date of last follow up. OS was calculated from the date of starting treatment until the date of death from any cause or the date of the last follow-up, at which point OS was censored. The disease control rate (DCR) was defined as the proportion of patients who achieved a stable disease (SD) or […] according to RECISTv1.1. Chi-square test was used to examine the difference in baseline patient characteristics among the three cohorts. Allelic distribution of all SNPs by ethnicity for deviation from Hardy-Weinberg equilibrium and the allelic frequencies of SNPs were tested using the Chi-square tests with one degree of freedom. The associations between candidate SNPs and disease control, and toxicities were examined using contingency tables and Fisher's exact test. The associations of SNPs with PFS and OS were analysed using Kaplan-Meier curves and the log-rank test. Because the true mode of inheritance of candidate SNPs was not established yet, a codominant or dominant genetic model if appropriate was considered.
All patients underwent the treatment in salvage-line setting. […] In all patients, adverse events were graded according to the Common Terminology Criteria for Adverse Events, version 4.0.
Patients in the control group received 160 mg regorafenib (Bayer, Leverkusen, Germany) once daily from day 1 to 21 every 4 weeks. Doses were adjusted based on haematological and non-haematological adverse events at treating physician's discretion in accordance with the manufacturer's recommendations. The analyses were approved by the University of Southern California (USC) Institutional Review Board of Medical Sciences and conducted at the USC/Norris Comprehensive Cancer Center in accordance with the Declaration of Helsinki and Good Clinical Practice Guidelines.
Genomic DNA was extracted from peripheral whole blood in patients of all cohorts using the QIAmp Kit (Qiagen, Valencia, Calif., USA) according to the manufacturer's protocol (www.qiagen.com). The candidate SNPs were tested using PCR-based direct DNA sequence analysis by ABI 3100A Capillary Genetic Analyzer and Sequencing Scanner v1.0 (Applied Biosystems). […] The investigators analyzing SNPs were blinded to the clinical data.
The primary endpoint in this study was progression-free survival (PFS), and the secondary endpoints were overall survival (OS) and disease control rate (DCR). […]

[1] = Sex Female vs Male (Ref.), univariate
[2] = Tumor site Left vs Right (Ref.), univariate
[3] = XRCC3 rs861539 A/A vs G/G (Ref.), multivariable
[4] = XRCC3 rs861539 A/A vs G/G (Ref.), univariate
[5] = XRCC3 rs861539 Any A vs G/G (Ref.), multivariable
[6] = XRCC3 rs861539 Any A vs G/G (Ref.), univariate
[7] = XRCC3 rs861539 G/A vs G/G (Ref.), multivariable
[8] = XRCC3 rs861539 G/A vs G/G (Ref.), univariate
[9] = MATE1 rs2289669 G/A and A/A combined
[10] = MATE1 rs2289669 G/A and A/A combined vs G/G

CNC(=O)c1cc(Oc2ccc(NC(=O)Nc3ccc(Cl)c(C(F)(F)F)c3)c(F)c2)ccn1 [regorafenib]
Median OS (Sex Female): 5.5 months | Median PFS (Sex Female): 2.0 months | HR OS [1]: 1.18 | HR PFS [1]: 1.02 | Median OS (Sex Male): 5.4 months | Median PFS (Sex Male): 1.8 months | Median OS (Tumor site Left): 7.2 months | Median PFS (Tumor site Left): 2.2 months | HR OS [2]: 0.82 | HR PFS [2]: 0.80 | Median OS (Tumor site Right): 3.9 months | Median PFS (Tumor site Right): 1.8 months | Disease Control CR/PR/SD, patients n (%) (XRCC3 rs861539 A/A): 3 (43%) | Median OS (95% CI) (XRCC3 rs861539 A/A): 5.4 (2.3, 9.1) months | Median PFS (95% CI) (XRCC3 rs861539 A/A): 2.7 (1.7, 4.3) months | PD, patients n (%) (XRCC3 rs861539 A/A): 4 (57%) | HR OS (95% CI) [3]: 0.54 (0.21, 1.40) | HR PFS (95% CI) [3]: 0.62 (0.23, 1.65) | HR OS (95% CI) [4]: 0.34 (0.04, 2.95) | HR PFS (95% CI) [4]: 0.83 (0.34, 2.06) | Disease Control CR/PR/SD, patients n (%) (XRCC3 rs861539 Any A): 13 (38%) | Median OS (95% CI) (XRCC3 rs861539 Any A): 5.9 (3.8, 8.0) months | Median PFS (95% CI) (XRCC3 rs861539 Any A): 2.0 (1.8, 3.1) months | PD, patients n (%) (XRCC3 rs861539 Any A): 21 (62%) | HR OS (95% CI) [5]: 0.71 (0.38, 1.31) | HR PFS (95% CI) [5]: 0.85 (0.44, 1.63) | HR OS (95% CI) [6]: 0.72 (0.22, 2.39) | HR PFS (95% CI) [6]: 0.83 (0.45, 1.53) | Disease Control CR/PR/SD, patients n (%) (XRCC3 rs861539 G/A): 10 (37%) | Median OS (95% CI) (XRCC3 rs861539 G/A): 6.8 (3.6, 8.7) months | Median PFS (95% CI) (XRCC3 rs861539 G/A): 1.9 (1.8, 3.1) months | PD, patients n (%) (XRCC3 rs861539 G/A): 17 (63%) | HR OS (95% CI) [7]: 0.76 (0.40, 1.44) | HR PFS (95% CI) [7]: 0.92 (0.47, 1.79) | HR OS (95% CI) [8]: 0.86 (0.25, 2.96) | HR PFS (95% CI) [8]: 0.83 (0.44, 1.56) | Disease Control CR/PR/SD, patients n (%) (XRCC3 rs861539 G/G): 4 (27%) | Median OS (95% CI) (XRCC3 rs861539 G/G): 4.1 (1.7, 6.0) months | Median PFS (95% CI) (XRCC3 rs861539 G/G): 1.7 (1.0, 2.2) months | PD, patients n (%) (XRCC3 rs861539 G/G): 11 (73%) | Disease Control Rate PD (MATE1 rs2289669 A/A): 5 (50%) | Disease Control Rate SD (MATE1 rs2289669 A/A): 3 (50%) | Disease Control Rate SD (MATE1 rs2289669 G/A): 7 (27%) | PD, patients n (%) (MATE1 rs2289669 G/A): 19 (73%) | Overall Survival Median, months (95% CI) [9]: 5.3 (3.7, 8.0) months | Progression-free Survival Median, months (95% CI) [9]: 1.8 (1.7, 2.8) months | Overall Survival HR (95% CI) multivariate [10]: 0.99 (0.52, 1.91) | Overall Survival HR (95% CI) univariate [10]: 0.85 (0.50, 1.57) | Progression-free Survival HR (95% CI) multivariate [10]: 0.86 (0.43, 1.70) | Progression-free Survival HR (95% CI) univariate [10]: 0.65 (0.48, 1.52) | Disease Control Rate PD (MATE1 rs2289669 G/G): 10 (59%) | Disease Control Rate SD (MATE1 rs2289669 G/G): 7 (41%) | Overall Survival Median, months (95% CI) (MATE1 rs2289669 G/G): 5.7 (2.2, 7.8) months | Progression-free Survival Median, months (95% CI) (MATE1 rs2289669 G/G): 2.1 (1.5, 3.1) months | Overall Survival HR (95% CI) univariate (OCT2 rs316000): 0.95 (0.50, 1.83) | Progression-free Survival HR (95% CI) univariate (OCT2 rs316000): 0.95 (0.50, 1.83) | Disease Control Rate PD (OCT2 rs316019 A/A): 1 (100%) | Disease Control Rate SD (OCT2 rs316019 A/A): 0 | Disease Control Rate PD (OCT2 rs316019 C/A): 6 (86%)
